The test system of this assay is DM/HC pig model. Nature of the assay: Diabetic/hypercholesterolemic (DM/HC) pig model: brain histology/IHC, weight and behaviour. The format is in vivo. The method, then:
A diabetic/diabetic hypercholestrolemic pig model (DM/HC) was developed that mimics human-like atherosclerosis. Farm pigs weighing 25-30 kg and aged ˜4 months were made diabetic with a single intravenous injection of 125 mg/kg of streptozotocin (Sicor Pharmaceuticals, Irvine, Calif.). After stabilization for 1-2 weeks, the animals with elevated levels of plasma glucose (>150 mg/dl) were fed with atherogenic (high-fat) diet as shown in Table 1 (Animal Specialties, Quakertown, Pa.) to achieve a cholesterol level of approximately […] Maintenance of the cholesterol level was determined by method as shown in Table 2.
On days 1-2, animals were fed normal chow, followed by on days 3-14 animals were fed a diet of 0.5% cholesterol, 2% lard and on day 14, cholesterol levels were measured and the diet adjusted accordingly to increase to 2% cholesterol, 10% lard if cholesterol is <300 mg/dl. Following induction of DM/HC, cholesterol was measured until cholesterol levels are stable between 300 and 800 mg/dl, and following cholesterol stabilization, cholesterol was measured monthly. If cholesterol levels were unstable following initial stabilization phase, the diet of the animal was returned to the initial two-week measurement schedule. Monthly cholesterol levels were determined, including levels of total cholesterol, LDL, HDL, VLDL and triglycerides.
At one month after stabilization of cholesterol at 250-800 mg/d1, the animals were randomized into two experimental groups, DM/HC (hyperglycemia and hypercholesterolemia) group with no treatment and treatment group (10 mg/kg/day of SB-480848, also referred to as 1-(N-(2-(diethylamino)ethyl)-N-(4-(4-trifluoromethylphenyl)benzyl)-aminocarbonylmethyl)-2-(4-fluorobenzyl)thio-5,6-trimethylenepyrimidin-4-one). The animals were sacrificed at 6-month after the randomization. The animal protocol has been approved by the Institutional Animal Care and Use Committee of University of Pennsylvania.
Two diabetic/hypercholesterolemic groups were evaluated: 1. DM/HC group and 2. DM/HC animals receiving Lp-PLA2 inhibitors. The experiments included: the control group (DM/HC group—17 pigs) and the experimental group (DM/HC animals receiving LP-PLA2 inhibitors—20 pigs). In addition blood cholesterol levels were maintained between 300 and 800 mg/dl in experimental animals, this range having been determined to provide a better test model. Blood cholesterol levels were monitored in all animals on a bimonthly basis, as shown in Table 4 and adjustments were made to the fat content of the feed accordingly, as shown in Table 2. The cholesterol and lard percent were in the range of 0.5-2% and 10-25%, respectively, and all animals received feed that contained cholesterol and lard concentration within that range. Blood samples were obtained at baseline, 1 month, 3 months, and 6 months. Less than 1 ml/kg of blood were obtained each time. At the bimonthly blood cholesterol levels tests, levels of total cholesterol, LDL, HDL, VLDL and triglycerides, blood glucose, Lp-PLA2 and […] (PBMCs) were tested (see Table 4).
The animal number, selected to justify the minimum requirement for statistical validity were 2 groups of animals per experiment as follows: 1. Control group (n=17); Diabetic and hyperlipidemic; 2.
Domestic farm pigs, Yorkshire boars, ranging in weight between 25-35 kg were purchased from a local farm and placed in indoor housing under the care of a veterinarian. They were castrated 3-5 days in advance of the study start date. Test pigs were made diabetic by infusing one dose of streptozocin (125 mg/kg) IV in a period of 30 min. […] To avoid the possible onset of initial hypoglycemia, 20 g of glucose powder was added to the feed for the […]. The blood glucose was measured using a glucometer every day before feeding for the first 14 days and then once a week.
Test animals were housed separately from control animals to avoid inter-animal transfer of drug due to colcophagia. […]

Setting [1] is: DM/HC pigs, 10 mg/kg/day, brain IHC for pig immunoglobulin.
Where [2] appears, read: DM/HC pigs, 10 mg/kg/day, observed during study period vs control non-treated animals.

“Also recorded” adds a separate entry of the source.

Take `CCN(CC)CCN(Cc1ccc(-c2ccc(C(F)(F)F)cc2)cc1)C(=O)Cn1c(SCc2ccc(F)cc2)nc(=O)c2c1CCC2` [Lp-PLA2 inhibitor, 1-(N-(2-(diethylamino)ethyl)-N-(4-(4-trifluoromethylphenyl)benzyl)-aminocarbonylmethyl)-2-(4-fluorobenzyl)thio-5,6-trimethylenepyrimidin-4-one]: the “activation of glial cells” value (DM/HC pigs treated with Lp-PLA2 inhibitor, GFAP as marker) was “less activation of glial cells”. Besides, the “Abeta42 accumulation in vascular SMCs (cerebrovascular amyloidosis)” value (DM/HC pigs, 10 mg/kg/day, Abeta-42 immunostaining of arterioles) is “little or no arterial Abeta-42 immunostaining; also recorded: prevented Abeta42 accumulation in vascular SMCs”. Moreover, the “Abeta-42 accumulation in neurons (immunoreactivity)” value (DM/HC pigs, 10 mg/kg/day, brain Abeta-42 immunostaining, n=6) is on record as “immunonegative neurons for Abeta-42; also recorded: no neuronal Abeta-42 immunoreactivity”. Moreover, the dendrite collapse result (DM/HC pigs, 10 mg/kg/day, brain IHC) is “no dendrite collapse”. For the same compound, under setting [1], the “Ig binding to neurons” value is “no Ig binding to neurons” and the “Ig leakage from blood vessels” value is “Ig is confined to the lumen of the blood vessels; also recorded: no Ig leakage from blood vessels”. Moreover, the “DM/HC-induced BBB leakage” value (DM/HC pigs, 10 mg/kg/day, brain IHC for pig immunoglobulin, n=6) was “prevents BBB leakage; also recorded: negligible BBB leakage”. For the same compound, for the setting “DM/HC pigs, 10 mg/kg/day, compared with non-treated animals”, the sick neurons result is given as “rarely observed”. Under setting [2], the “activity in the cage” value is “increased activity in the cage”; the “response to feeding and handling” value was “respond more alertly to feeding and handling”; the “responsiveness to external stimuli” value is “more responsive to external stimuli”.
